Tested on: HCT 116 cell line
Assay: cDNA overexpression of LTBR and TMEM30A: oxaliplatin IC50, cell viability
Type: cell-based, human
Details: 72 h
Source text: FIGS. 5A-5C show the validation of genes identified in the siRNA screen for genes regulating sensitivity or resistance to oxaliplatin. The effect of siRNA-silencing or cDNA overexpression on the IC50 of oxaliplatin was expressed as the log2 fold-shift of the mean IC50 of siRNA-treated (or cDNA-overexpressing) cells relative to the mean IC50 of non-silencing siRNA control-treated (or vector-alone) cells. […] Data represent mean±SEM (n=3).
Full-length LTBR and TMEM30A open reading frames were cloned into pCMV-XL4 (Origene, Rockville, Md.) and validated by sequencing. Transfection was performed using Turbofectin 8.0® (Origene, Rockville, Md.) in a 96-well format as per manufacturer's instructions using 100 ng cDNA per well. Following a 4 hr incubation, 10 μl per well of an 11-point, 2-fold serial dilution of oxaliplatin (50 μM maximum) was then added. Assays were performed in triplicate, using the empty pCMV-XL4 vector as negative control, with biological replicates. […] Overexpression of cDNA was validated by qRT-PCR using the High-Capacity cDNA Reverse Transcription Kit® (Life Technologies, Carlsbad, Calif.) and qPCR using the 7900 HT Fast Real-Time PCR System® (Life Technologies, Carlsbad, Calif.) with gene-specific primers (ABI, Carlsbad, Calif.).

Structure (SMILES): O=C1[O][Pt]2([NH][C@@H]3CCCC[C@H]3[NH]2)[O]C1=O [oxaliplatin]
- increase of IC50 of oxaliplatin (transient overexpression of full-length LTBR vs empty pCMV-XL4 vector): > 2 fold
- increase of IC50 of oxaliplatin (transient overexpression of full-length TMEM30A vs empty pCMV-XL4 vector): > 2 fold
